Source: patent US20160024249A1, “Temperature-Responsive Polymer Compositions and Methods of Use” (Vanderbilt University, priority 2014, published 2016)
No end group written: not given here.

Tests used:
[1] = test system: mouse aortic endothelial cells (mAECs); test: MMP-9 activity by zymography; assay type: cell-based; conditions: 72 h, peptides 75 mg/mL, MMP-9 inhibitors 5 mM, TNF-a antibodies 5 mg/mL
Experimental: (§1) Cell Culture: RAW 264.7 macrophages (ATCC) were cultured in DMEM (Gibco) supplemented with 10% FBS and 1% penicillin/strepto-mycin. Mouse aortic endothelial cells (mAECs) were a generous gift from Dr. Ambra Pozzi at Vanderbilt University Medical Center. mAECs were cultured in EGM-2 Basal Media supplemented with BulletKit (Lonza, Allendale, N.J.) and 10 units/mLIFN-g (Sigma). RAW 264.7 mouse macrophage cells (Sigma) were cultured in DMEM with 10% FBS and 1% penicillin/streptomycin. For cell culture studies with peptides, 75 mg/mL of Ac-SDKP or C16 peptides was used. For inhibition studies, 5 mM of MMP-9 inhibitor-1 (CTK8G1150; AG-L-66085, Santa Cruz Biotechnology, Dallas, Tex.) or 5 mg/mL of LEAF Purified Mouse TNF-a antibody (BioLegend) was used.
MMP-9 activity: After 72 h culture in serum-free media, culture media from mAECs or RAW 264.7 cells (3×10^5 cells/mL, with/without peptides or TNF-a/MMP-9 inhibitors) was collected, concentrated, and analyzed by zymography, as described previously. Concentrated protein samples were incubated with non-reducing buffer at a ratio of 1:1. […] total protein per lane were loaded onto a 7.5% polyacrylamide gel containing 0.1%(w/v) gelatin (Sigma). Gels were washed in dH2O containing 3.3% (v/v) Triton X-100, followed by […] incubation in reaction buffer at 37 C. After incubation, gels were placed in fixative (30% methanol, 10% acetic acid, and 60% dH2O) for 1 h before staining with 4 parts Coomassie brilliant blue R-250 (Sigma) and 1 part methanol for 12 h. Gels were destained in 25% methanol for 1 h. The gelatinolytic activity of pro-MMP-9 was determined by densitometry of the 97 KDa white band on a blue background using Image J(n=4 per treatment). MMP-9 expression was then normalized to the expression from the no inhibitor, no peptide treated group.

[2] = test system: mouse aortic endothelial cells (mAECs); test: Tubulogenesis on growth factor reduced Matrigel; assay type: cell-based; conditions: mAECs on Matrigel for 6 h
Experimental: as §1
Tubulogenesis: mAECs (3×10^5 cells/mL) were cultured on growth factor reduced Matrigel ([…], BD Biosciences) for 6 h before imaging for tube formation using a Nikon Eclipse Ti microscope (n=4 per treatment).

[3] = test system: mouse model of hind limb ischemia; test: Histological analysis of inflammation (H&E, F4/80 macrophage infiltration); assay type: in vivo, A/J mice; conditions: multiple 1 mL microgel injections
Text: Mouse model of hind limb ischemia: Wild type A/J mice were used to develop a model of PAD as described previously, by ligating the femoral artery and vein at one ligation below the epigastric artery and a second ligation around the artery and vein at a distal location just proximal to the deep femoral branch. The femoral artery and vein were then cut between these two sutures. […] In order to control the hydrogel size considering the possibility that the hydrogel size may change peptide release and therefore inflammatory responses a single, 10 mL bulk injection or ten, 1 mL injections of peptide-loaded polymer were made into the thigh muscle adjacent to the femoral artery ligations. The surgical incision was then closed with non-degradable sutures. […]
Histological analysis of angiogenesis and inflammation: After sacrificing mice, ischemic muscle samples were prepared for histological analysis as described elsewhere. […] Immunohistochemical (IHC) staining to identify activated inflammatory cells by F4/80 expression was quantified by normalizing the total F4/80 positive area (indicated by brown staining) to the total cell number (determined by hema-toxylin nuclear staining) using Image J.

[4] = test system: mouse model of hind limb ischemia; test: Laser Doppler perfusion imaging (LDPI) of perfusion recovery; assay type: in vivo, A/J mice; conditions: peptide-loaded microgels, 14 day time course
Experimental: Mouse model of hind limb ischemia: Wild type A/J mice were used to develop a model of PAD as described previously, by ligating the femoral artery and vein at one ligation below the epigastric artery and a second ligation around the artery and vein at a distal location just proximal to the deep femoral branch. The femoral artery and vein were then cut between these two sutures. A 13% by weight solution of injectable polymers in H2O 2O was mixed with 75 mg Ac-SDKP, C16, or the combination of Ac-SDKP and C16 at 25° C. In order to control the hydrogel size considering the possibility that the hydrogel size may change peptide release and therefore inflammatory responses a single, 10 mL bulk injection or ten, 1 mL injections of peptide-loaded polymer were made into the thigh muscle adjacent to the femoral artery ligations. The surgical incision was then closed with non-degradable sutures. […]
LDPI: LDPI was performed on the footpad region of the hind limb of the mice using a Periscan PIM II device. […] The perfusion ratio was calculated by normalizing the average perfusion value of the ischemic footpad (right) to the average perfusion value of the control, un-operated footpad (left) using Image J (NIH).

[5] = test system: mouse model of hind limb ischemia; test: Optical coherence tomography (Doppler and speckle-variance OCT) of blood vessels; assay type: in vivo, A/J mice; conditions: for vessel morphology (speckle-variance OCT volume scans of calf muscle): injectable microgels
Experimental: (§2) Mouse model of hind limb ischemia: Wild type A/J mice were used to develop a model of PAD as described previously, by ligating the femoral artery and vein at one ligation below the epigastric artery and a second ligation around the artery and vein at a distal location just proximal to the deep femoral branch. The femoral artery and vein were then cut between these two sutures. A 13% by weight solution of injectable polymers in H2O 2O was mixed with 75 mg Ac-SDKP, C16, or the combination of Ac-SDKP and C16 at 25° C. In order to control the hydrogel size considering the possibility that the hydrogel size may change peptide release and therefore inflammatory responses a single, 10 mL bulk injection or ten, 1 mL injections of peptide-loaded polymer were made into the thigh muscle adjacent to the femoral artery ligations. The surgical incision was then closed with non-degradable sutures. As controls, femoral artery ligation surgery was performed on animals without any microgels or peptide treatment or with peptide in PBS injections into the subcutaneous tissue adjacent to femoral artery ligations. The left hind limb (unoperated) was also used as a surgical control.
Optical coherence tomography: Doppler OCT and speckle-variance OCT were used to non-invasively image blood vessels in the ischemic gastrocnemius muscle of mice on days 1 and 13 after femoral artery ligation, as previously described. […] Doppler OCT cross-sectional scans (B-scans) were used to quantify blood flow changes over time in the hind limb, while volume intensity projections from speckle-variance OCT image volumes (C-scans) presented vessel morphology differences between groups. […] Six Doppler OCT B-scans (4 mm, 800 A-scans, Doppler number of 9) were performed per mouse at each time point and perfusion was quantified by calculating the ratio of the number of blood vessel pixels per scan over the total imaged area per scan (n=6 mice per time point).

[6] = test system: mouse model of hind limb ischemia; test: Fluorescence microangiography (vessel perfusion capacity); assay type: in vivo, A/J mice
Experimental: as §2
Angiogenesis and phagocytosis assays: Fourteen days after femoral artery ligation, mice were sacrificed and tissue and microgels were harvested for analysis. Immediately before sacrificing the mice, functional fluorescence micro-angiography was performed to visualize angiogenesis in and around peptide-loaded microgels, as described previously. As a result of fluorescence microangiography, only the functional capillaries with a perfusion capacity, including those around injected micro-gels, show red fluorescence in the mouse body. Excised tissue from the site of microgel injections was imaged using an Olympus FV100 confocal microscope. For quantification of vessel perfusion capacity, the red fluorescence intensity was quantified using Image J software (n=6 images per mouse, n=6 mice per treatment).

[7] = test system: mouse model of hind limb ischemia; test: Vybrant phagocytosis assay in harvested microgels and surrounding tissue; assay type: in vivo, A/J mice; conditions: peptide-loaded microgels, day 14
Text: Mouse model of hind limb ischemia: Wild type A/J mice were used to develop a model of PAD as described previously, by ligating the femoral artery and vein at one ligation below the epigastric artery and a second ligation around the artery and vein at a distal location just proximal to the deep femoral branch. The femoral artery and vein were then cut between these two sutures. […] In order to control the hydrogel size considering the possibility that the hydrogel size may change peptide release and therefore inflammatory responses a single, 10 mL bulk injection or ten, 1 mL injections of peptide-loaded polymer were made into the thigh muscle adjacent to the femoral artery ligations. The surgical incision was then closed with non-degradable sutures. As controls, femoral artery ligation surgery was performed on animals without any microgels or peptide treatment or with peptide in PBS injections into the subcutaneous tissue adjacent to femoral artery ligations. […]
A phagocytosis assay was performed in harvested microgels using Vybrant Phagocytosis Assay kit according to the manufacturer's protocol. Green fluorescence from internalized Escherichia coli particles in excised microgels and surrounding tissue was visualized through confocal imaging. The intensity of green fluorescence in each image was quantified using Image J (n=6 images per mouse, n=6 mice per treatment).

[8] = test system: mouse aortic endothelial cells (mAECs); test: Gene expression by quantitative RT-PCR; assay type: cell-based; conditions: 75 mg/mL peptide, 72 h
Experimental: as §1
Gene expression: mAECs or RAW 264.7 cells were seeded at a density of 3×10^5 cells/mL on TCPS with 75 mg/mL of Ac-SDKP, C16, or the combination of C16 and Ac-SDKP peptides. After 3 days, RNA was extracted from […] using Trizol reagent and RNA easy columns. After dissolving RNA in RNase-free water, the concentration and purity of isolated RNA was measured using TECAN plate reader Nanoquant (company info). At least […] of RNA was reverse transcribed using iScriptReverse transcription Supermix for RT-qPCR on a BioRad thermocycler (company info). 50 ng/well cDNA was then amplified using SYBR green Supermix and fluorescence signal was measured on a BioRAD real time PCR machine. TGF-b1 forward: […], reverse: […]. NF-kb forward: […]-CACAGA, reverse: […]. TIMP1 forward: […], reverse: […]-CACA. FGF-1 forward: […], reverse: […]. FGF-2: MMP-9: […]-CAATCC, reverse: […]. MMP-2 forward: […], reverse: […]. TNF-a: forward: […], reverse: AGA-[…]. VEGF forward: […]-CACCA, reverse: […]. GAPDH forward: […], reverse: […]. TIMP-2 forward: […], reverse: CACGCG-[…]. Expression was calculated using the […] and normalized to GAPDH expression (n=8).

[9] = test system: RAW 264.7 macrophages; test: Gene expression by quantitative RT-PCR; assay type: cell-based, mouse; conditions: 75 mg/mL peptide, 72 h
Experimental: as §1
Gene expression: mAECs or RAW 264.7 cells were seeded at a density of 3×10^5 cells/mL on TCPS with 75 mg/mL of Ac-SDKP, C16, or the combination of C16 and Ac-SDKP peptides. After 3 days, RNA was extracted from […] using Trizol reagent and RNA easy columns. After dissolving RNA in RNase-free water, the concentration and purity of isolated RNA was measured using TECAN plate reader Nanoquant (company info). […] 50 ng/well cDNA was then amplified using SYBR green Supermix and fluorescence signal was measured on a BioRAD real time PCR machine. […] Expression was calculated using the […] and normalized to GAPDH expression (n=8).

[10] = test system: RAW 264.7 macrophages; test: MMP-9 activity by zymography; assay type: cell-based, mouse; conditions: RAW 264.7, 72 h, regardless of TNF-a inhibition
Experimental: as §1
MMP-9 activity: After 72 h culture in serum-free media, culture media from mAECs or RAW 264.7 cells (3×10^5 cells/mL, with/without peptides or TNF-a/MMP-9 inhibitors) was collected, concentrated, and analyzed by zymography, as described previously. Concentrated protein samples were incubated with non-reducing buffer at a ratio of 1:1. […] total protein per lane were loaded onto a 7.5% polyacrylamide gel containing 0.1%(w/v) gelatin (Sigma). […] The gelatinolytic activity of pro-MMP-9 was determined by densitometry of the 97 KDa white band on a blue background using Image J(n=4 per treatment). […]

[11] = test system: RAW 264.7 macrophages; test: TNF-a ELISA of cell culture supernatant; assay type: cell-based, mouse; conditions: RAW 264.7, 72 h, peptides 75 mg/mL, TNF-a antibodies 5 mg/mL
Experimental: as §1
ELISA: To verify TNF-a inhibition with antibodies, an ELISA was performed using Mouse TNF-a ELISA MAXTM Deluxe (Biolegend) according to the supplier's protocol. Secreted TNF-a in RAW 264.7 cell culture supernatant was measured by reading absorbance at 450 nm using a TECAN M1000 plate reader and quantified against a standard curve (n=4 per treatment).

[12] = test system: iPSC-CMs
Experimental: The encapsulation study was performed by mixing cells with polymer solution and gelled at 37° C. After two weeks, live cells were stained by calcein AM (green fluorescence) (g).

| Molecule | MMP-9 activity in endothelial cells (zymography) [1] | tubulogenesis (tube formation) [2] | macrophage infiltration, increase compared to no peptide treatment ([3]; day 14) | higher perfusion compared to microgels without peptides (LDPI) ([4]; ischemic/control foot ratio) | increase in the total area of vessels (Doppler OCT) compared to Ac-SDKP or no treatment ([5]; implantable scaffolds, day 1 to day 13) | vessel morphology (speckle-variance OCT volume scans of calf muscle) [5] | angiogenesis compared to PBS alone ([6]; PBS injections of peptide, no microgel) | angiogenesis / perfusion capacity increase vs. microgels without peptides ([6]; microgel-mediated delivery, day 14) | phagocytic activity in tissue around microgels [7] | TIMP-1 expression [8] | TNF-a expression in comparison to no peptide treatment [8] | TNF-a expression in comparison to no peptide treatment [9] | MMP-9 activity compared to macrophages without peptide treatment [10] | inflammatory / macrophage infiltration in muscle tissue ([3]; day 14, vs no peptide) | perfusion recovery (LDPI) [4] | angiogenesis in comparison to microgels without peptide loading ([6]; peptide-loaded microgels, day 14) | MMP-9 expression, decrease compared to no peptide treatment ([8]; normalized to GAPDH) | secreted TNF-a (ELISA) [11] | viability of encapsulated iPSC-CMs (calcein AM) [12] |
| --- | --- | --- | --- | --- | --- | --- | --- | --- | --- | --- | --- | --- | --- | --- | --- | --- | --- | --- | --- |
| CCN(CC)Cc1cc(C)c(N(Cc2ccccc2)S(=O)(=O)c2ccc(OC)cc2)c(C(=O)NO)c1 [MMP-9 inhibitor, reference compound] | attenuation of MMP-9 activity | significantly reduced |  |  |  |  |  |  |  |  |  |  |  |  |  |  |  |  |  |
| KAFDITYVRLKF [C16, pro-angiogenic peptide] | augmented MMP-9 activity and tubulogenesis | augmented MMP-9 activity and tubulogenesis | two fold | 29% | greater than two fold | many vessels with a high degree of branching | Slightly increased angiogenesis | ~1.5 fold | higher phagocytic activity than no peptide controls | decreased TIMP-1 expression significantly | increased TNF-a expression | increased TNF-a expression | significantly higher levels of MMP-9 activity |  |  |  |  |  |  |
| N-acetyl-Ser-Asp-Lys-Pro (Ac-SDKP) [anti-inflammatory peptide] | diminished | diminished |  |  |  | few blood vessels with limited branching |  |  | reduced both responses |  | decreased TNF-a expression | decreased TNF-a expression |  | further decreased inflammatory infiltration | did not increase perfusion | reduced both responses | over 50% | secreted the least amounts of TNF-a |  |
| polyethylene glycol-co-poly-8-caprolactone [PEG-PCL] |  |  |  |  |  |  |  |  |  |  |  |  |  |  |  |  |  |  | maintained their viability |
